# Experimental data published in the supplement of paper PMC10307832.
# Assays:
# Assay in all cases: relative viability (nuclei count vs DMSO), 5 days (fraction); higher = more cells survive
# [1] = compound: CC(C)=CC[C@@H](O)C1=CC(=O)c2c(O)ccc(O)c2C1=O [Shikonin] + CC1(C)CCC(c2ccc(Cl)cc2)=C(CN2CCN(c3ccc(C(=O)NS(=O)(=O)c4ccc(N[C@H](CCN5CCOCC5)CSc5ccccc5)c(S(=O)(=O)C(F)(F)F)c4)cc3)CC2)C1 [Navitoclax] (partner 0.5 µM)
# How it was run: (§1)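 A single step with final 0.05% Triton X-100, 1% formaldehyde and 1 ug/ml Hoechst fixed the cells and stained nuclei 5 days after treatment. Lung cancer cell lines in 1536-well plates had been treated by pin tool the day after seeding with one drug alone or a fixed anchor-drug dose plus five library-drug doses (not always all listed) in √10 steps, and nuclei were counted on 4× images. Relative viability is the ratio of nuclei in treated wells to nuclei in vehicle wells, taken as the median of duplicate plates.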
# [2] = compound: CC(C)=CC[C@@H](O)C1=CC(=O)c2c(O)ccc(O)c2C1=O [Shikonin] + N=C(N)NC(=N)NCCc1ccccc1 [Phenformin] (partner 250 µM)
# How it was run: as §1
# [3] = compound: CC(C)N(CCCNC(=O)Nc1ccc(C(C)(C)C)cc1)C[C@H]1O[C@@H](n2ccc3c(N)ncnc32)[C@H](O)[C@@H]1O + CCNC(=O)c1noc(-c2cc(C(C)C)c(O)cc2O)c1-c1ccc(CN2CCOCC2)cc1 [Luminespib] (partner 0.01 µM)
# How it was run: as §1
# [4] = compound: CC(C)N(CCCNC(=O)Nc1ccc(C(C)(C)C)cc1)C[C@H]1O[C@@H](n2ccc3c(N)ncnc32)[C@H](O)[C@@H]1O + Cc1nc(NC(=O)N2CCC[C@H]2C(N)=O)sc1-c1ccnc(C(C)(C)C(F)(F)F)c1 [Alpelisib] (partner 2 µM)
# How it was run: as §1
Cell Line,relative viability ([1]; first compound 0.01 µM),relative viability ([1]; first compound 0.1 µM),relative viability ([1]; first compound 0.3162 µM),relative viability ([1]; first compound 1 µM),relative viability ([2]; first compound 0.01 µM),relative viability ([2]; first compound 0.1 µM),relative viability ([2]; first compound 0.3162 µM),relative viability ([2]; first compound 1 µM),relative viability ([3]; first compound 0.08 µM),relative viability ([3]; first compound 0.253 µM),relative viability ([3]; first compound 0.8 µM),relative viability ([3]; first compound 2.53 µM),relative viability ([3]; first compound 8 µM),relative viability ([4]; first compound 0.08 µM),relative viability ([4]; first compound 0.253 µM),relative viability ([4]; first compound 0.8 µM),relative viability ([4]; first compound 2.53 µM),relative viability ([4]; first compound 8 µM)
NCI-H1944,0.988,1.1,1.08,1.14,0.198,0.189,0.209,0.205,0.716,0.683,0.819,0.709,0.766,0.769,0.806,0.774,0.852,0.82
NCI-H1975,1.16,1.37,1.33,0.91,0.417,0.431,0.413,0.408,0.214,0.154,,0.213,0.192,0.555,0.529,0.586,0.611,0.567
NCI-H1993,,0.814,0.936,1.01,0.504,0.579,0.555,0.499,0.707,,,0.927,0.84,0.696,0.786,0.619,0.675,0.751
NCI-H2009,1.23,1.16,1.19,1.05,0.475,0.568,0.433,0.181,0.977,0.861,1.08,1.02,0.884,1.19,1.15,1.22,1.22,1.18
NCI-H2023,1.03,1.06,1.03,0.97,0.352,0.386,0.452,0.341,0.694,0.771,0.807,0.858,0.621,0.532,0.619,0.619,0.68,0.622
NCI-H2085,1.08,1.09,1.13,0.664,0.738,0.847,0.785,0.637,0.434,0.506,0.441,0.414,0.389,0.969,0.978,1.05,0.972,0.913
NCI-H2087,1.01,1.15,1.01,0.917,0.458,0.484,0.447,0.463,0.211,0.198,0.276,0.16,0.151,1.04,1.21,1.14,1.24,1.11
NCI-H2126,0.84,0.86,0.879,0.864,0.518,0.571,0.565,0.513,0.847,0.814,0.941,0.88,0.925,0.734,0.712,0.78,0.783,0.722
NCI-H2170,0.578,0.511,0.58,0.61,0.399,0.445,0.449,0.431,0.793,0.762,0.718,0.661,0.629,0.736,0.762,0.82,0.815,0.908
NCI-H2228,0.799,0.846,0.911,0.895,0.31,0.287,0.283,0.289,0.218,0.191,0.178,0.144,0.18,0.782,,0.796,0.76,0.745
NCI-H2347,0.775,0.73,0.781,0.798,0.488,0.384,0.31,0.313,0.578,0.321,0.245,0.371,0.555,0.882,0.904,0.935,1.1,1
NCI-H2405,0.962,0.922,1.16,0.837,0.391,0.398,0.427,0.396,0.691,0.61,0.722,0.78,0.74,0.858,,0.789,0.89,0.795
NCI-H3122,1.03,1.09,1.05,1.09,0.391,0.417,0.391,0.399,0.0976,0.0883,0.117,0.0934,0.102,0.808,0.846,0.797,0.858,0.701
PC-3 [JPC-3],0.758,0.848,0.884,0.786,0.488,0.231,0.477,0.428,0.699,0.704,0.779,0.71,0.683,1.04,1,0.896,1,1.01
PC-14,1.05,1.1,1.23,1.02,0.587,0.619,0.597,0.637,0.109,0.24,0.213,0.175,0.181,0.883,0.818,0.988,0.964,0.794
RERF-LC-KJ,0.835,0.996,0.758,1.11,0.374,0.433,0.505,0.36,1.2,1.22,1.33,1.18,1.19,0.826,0.757,0.868,0.838,0.815
SK-LU-1,0.966,0.972,1.08,0.589,0.522,0.648,0.596,0.524,0.193,0.202,0.182,0.252,0.191,1.22,1.15,1.28,1.16,1.01
SK-MES-1,1.25,1.19,1.29,1.29,0.747,0.677,0.72,0.638,0.693,0.723,0.929,0.872,0.717,0.992,0.897,0.754,0.945,0.838
